Test results reported in patent publication US9932637B2, “Genetic polymorphisms associated with cardiovascular disorders and drug response, methods of detection and uses thereof” (CELERA CORPORATION, priority 2003, dated 2018).

Tested on: patients with prior myocardial infarction (CARE study)
Experiment: CARE: risk of cardiovascular disease events associated with pravastatin by CD6 or FCAR genotype (Tables 11, 12)
Type: in vivo, human
Conditions: for RR (relative risk) of RMI associated with Pravastatin: recurrent MI during 5 years follow up; for OR of RMI associated with Pravastatin, Adjusted for Age, Smoking status, Gender / OR of RMI associated with Pravastatin, Adjusted for Age, Smoking status, Gender, hypertension, BMI, diabetes, baseline LDLD and HDL / OR of RMI associated with Pravastatin, Unadjusted: placebo group as reference
Description: In order to identify genetic markers associated with acute coronary events (e.g. MI, stroke, unstable angina, congestive heart failure, etc.) or response to statin treatment for the prevention of coronary events, samples from the Cholesterol and Recurrent Events (CARE) study (a randomized multicentral double-blinded trial on secondary prevention of acute coronary events with pravastatin) (Sacks et al., 1991, Am. J. Cardiol. 68: 1436-1446) were genotyped. A well-documented myocardial infarction (MI) was one of the enrollment criteria for entry into the CARE study. Patients were enrolled in the CARE trial from 80 participating study centers. […] Patients were randomized to receive either 40 mg of pravastatin once daily or a matching placebo. The primary endpoint of the trial was death from coronary heart disease and the median duration of follow-up was 5.0 years (range, 4.0 to 6.2 years). […] Secondary endpoints of other related cardiovascular or metabolic disease events, and changes in clinical variables were also recorded in pravastatin-treated and placebo groups. All individuals included in the study had signed a written informed consent form and the study protocol was approved by the respective Institutional Review Boards (IRBs).
In both studies the individuals homozygous for the minor allele were statistically different from heterozygous and major allele homozygous individuals in the pravastatin treated group vs. the placebo treated group. This SNP was associated with a reduced risk of an adverse coronary event in the CARE and WOSCOPS studies with RR or OR of 0.13 and 0.23 respectively in the two studies. Therefore, SNPs identified as useful for predicting RMI may also be useful for predicting increased risk for developing primary MI.
Therefore, an allele found to be associated with risk for MI, RMI, stroke, or other adverse cardiovascular event, may also be useful for predicting responsiveness to statin treatment. SNPs associated with treatment response to pravastatin may also be predictive of responsiveness of an individual to other statins as a class.

[1] = FCAR hCV7841642 genotype AA + AG

CC[C@H](C)C(=O)O[C@H]1C[C@H](O)C=C2C=C[C@H](C)[C@H](CC[C@@H](O)C[C@@H](O)CC(=O)O)[C@H]21 [pravastatin]
RR or OR of adverse coronary event, pravastatin vs placebo (CD6 hCV2553030, homozygous for the minor allele): 0.13
RR (relative risk) of RMI associated with Pravastatin (CD6 hCV2553030 genotype Het (TC)): 0.76
RR (relative risk) of RMI associated with Pravastatin (CD6 hCV2553030 genotype Major hom (CC)): 0.8
RR (relative risk) of RMI associated with Pravastatin (CD6 hCV2553030 genotype Minor hom (TT)): 0.13
RR (relative risk) of RMI associated with Pravastatin (CD6 hCV2553030 recessive (TT + CC)ref): 0.78
RR (relative risk) of RMI associated with Pravastatin (CD6 hCV2553030 recessive (TT)): 0.13
OR of RMI associated with Pravastatin, Adjusted for Age, Smoking status, Gender [1]: 0.31
OR of RMI associated with Pravastatin, Adjusted for Age, Smoking status, Gender, hypertension, BMI, diabetes, baseline LDLD and HDL [1]: 0.31
OR of RMI associated with Pravastatin, Unadjusted [1]: 0.32
OR of RMI associated with Pravastatin, Adjusted for Age, Smoking status, Gender (FCAR hCV7841642 genotype GG): 0.79
OR of RMI associated with Pravastatin, Adjusted for Age, Smoking status, Gender, hypertension, BMI, diabetes, baseline LDLD and HDL (FCAR hCV7841642 genotype GG): 0.79
OR of RMI associated with Pravastatin, Unadjusted (FCAR hCV7841642 genotype GG): 0.81
